Measured values from patent US9999616B2 (ZENITH EPIGENETICS LTD., priority 2013, dated 2018).

Key:
[1] = system: c-myc in Human AML MV4-11 cells; assay: Inhibition of cMYC expression (mRNA, real-time PCR) in MV4-11 cells; assay type: cell-based; conditions: 3 h treatment, cMYC mRNA by real-time PCR
Procedure, shortened: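 MV4-11 cells in IMDM with 10% FBS were treated with increasing compound concentrations (DMSO 0.1%) for 3 h at 37 °C, in triplicate. Isolated mRNA was quantified by one-step TaqMan RT-qPCR, cMYC Ct normalized to cyclophilin, and fold expression given relative to DMSO control.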

Human AML MV-4-11 cells = assay: Inhibition of cell proliferation in MV4-11 cells (CellTiter Aqueous One); assay type: cell-based; conditions: MV4-11, 72 h
Procedure, shortened: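 MV4-11 cells, 5×10^4 per well in IMDM with 10% FBS, were exposed to increasing compound concentrations or 0.1% DMSO for 72 h at 37 °C in triplicate. Viability was read by MTS (CellTiter Aqueous One) absorbance at 490 nm after 3-4 h. IC50 was derived from background-corrected signal relative to DMSO.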

hIL-6 mRNA = assay: Inhibition of hIL-6 mRNA transcription in LPS-stimulated U937 macrophages; assay type: cell-based, Human; conditions: Homo sapiens, U-937, PMA-differentiated U937 cells, 1 h pretreatment, LPS 3 h, read-out: IL-6 activity
Procedure, shortened: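 PMA-differentiated U937 macrophages (60 ng/mL PMA, 3 days) pretreated 1 h with compound in 0.1% DMSO, then stimulated with 1 ug/mL E. coli LPS for 3 h at 37° C. IL-6 mRNA quantified by one-step TaqMan qRT-PCR, normalized to cyclophilin; fold expression relative to control, triplicate wells.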

[2] = biological target: Brd4 bromodomain 1 (BRD4(1)) (Homo sapiens, UniProt O60885); assay: Inhibition of tetra-acetylated histone H4 binding to Brd4 bromodomain 1, measured by FRET (HTRF); set-up: made in house; host or cells: E. coli BL21(DE3); conditions: 2 h at room temperature
Procedure, shortened: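 Inhibition was read as a drop in 665 nm relative to 620 nm HTRF signal after 2 h at room temperature, with IC50 from dose-response curves in duplicate wells. Reactions held 200 nM E. coli-expressed His-tagged bromodomain and 25-50 nM biotinylated tetra-acetylated histone H4 peptide. Buffer was 30 mM HEPES pH 7.4 with KF, CHAPS, BSA and 0.2% DMSO.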

IC50 [1] [nM]	IC50 (Human AML MV-4-11 cells) [nM]	IC50 (hIL-6 mRNA) [nM]	IC50 [2] [nM]	SMILES
300 to 3000	300 to 3000	300 to 3000	300 to 3000	Cc1nc2c(-c3cc(C(F)(F)F)ccc3Cl)cc(-c3c(C)noc3C)cc2[nH]1 [Example Compound 162, 4-(4-(2-chloro-5-(trifluoro-methyl)phenyl)-2-methyl-1H-benzo[d]imidazol-6-yl)-3,5-dimethyl isoxazole]
300 to 3000	300 to 3000	300 to 3000	≤ 300	Cc1nc2c(-c3cnc4ccccc4c3)cc(-c3c(C)noc3C)cc2[nH]1 [Example Compound 163, 3,5-dimethyl-4-(2-methyl-4-(quinolin-3-yl)-1H-benzo[d]imidazol-6-yl)isoxazole]
300 to 3000	300 to 3000	300 to 3000	≤ 300	Cc1nc2c(-c3cscc3C)cc(-c3c(C)noc3C)cc2[nH]1 [Example Compound 166, 3,5-dimethyl-4-(2-methyl-4-(4-methyl-thiophen-3-yl)-1H-benzo[d]imidazol-6-yl)isoxazole]
300 to 3000	300 to 3000	300 to 3000	≤ 300	Cc1nc2c(-c3c(C)cnn3C)cc(-c3c(C)noc3C)cc2[nH]1 [Example Compound 169, 4-(4-(1,4-dimethyl-1H-pyrazol-5-yl)-2-methyl-1H-benzo[d]imidazol-6-yl)-3,5-dimethyl isoxazole]
300 to 3000	300 to 3000	300 to 3000	≤ 300	Cc1nc2c(-c3sc(C)nc3C)cc(-c3c(C)noc3C)cc2[nH]1 [Example Compound 170, 4-(4-(2,4-dimethyl-thiazol-5-yl)-2-methyl-1H-benzo[d]imidazol-6-yl)-3,5-dimethyl isoxazole]
300 to 3000	300 to 3000	300 to 3000	≤ 300	COc1ccncc1Oc1cc(-c2c(C)noc2C)cc2[nH]c(C)nc12 [Example Compound 171, 4-(4-((4-methoxy-pyridin-3-yl)oxy)-2-methyl-1H-benzo[d]imidazol-6-yl)-3,5-dimethyl isoxazole]
300 to 3000	300 to 3000	300 to 3000	≤ 300	Cc1nc2c(Oc3cc(C#N)ccc3C)cc(-c3c(C)noc3C)cc2[nH]1 [Example Compound 172, 3-((6-(3,5-dimethyl-isoxazol-4-yl)-2-methyl-1H-benzo[d]imidazol-4-yl)oxy)-4-methyl benzonitrile]
300 to 3000	300 to 3000	300 to 3000	≤ 300	Cc1nc2c(N3CCOCC3)cc(-c3c(C)noc3C)cc2[nH]1 [Example Compound 173, 4-(6-(3,5-dimethyl-isoxazol-4-yl)-2-methyl-1H-benzo[d]imidazol-4-yl) morpholine]
300 to 3000	300 to 3000	300 to 3000	≤ 300	Cc1nc2c(Oc3cc(C(N)=O)ccc3C)cc(-c3c(C)noc3C)cc2[nH]1 [Example Compound 174, 3-((6-(3,5-dimethylisoxazol-4-yl)-2-methyl-1H-benzo[d]imidazol-4-yl)oxy)-4-methylbenzamide]
≤ 300	300 to 3000	300 to 3000	≤ 300	Cc1nc2c(N3CCOCC3C)cc(-c3c(C)noc3C)cc2[nH]1 (stereo not shown) [Example Compound 177, 4-(6-(3,5-dimethyl-isoxazol-4-yl)-2-methyl-1H-benzo[d]imidazol-4-yl)-3-methyl morpholine]
≤ 300	≤ 300	≤ 300	≤ 300	Cc1n[nH]c(C)c1-c1cc(-c2c(C)noc2C)cc2[nH]nc(C)c12 [Example Compound 180, 4-(4-(3,5-dimethyl-1H-pyrazol-4-yl)-3-methyl-1H-indazol-6-yl)-3,5-dimethylisoxazole]
≤ 300	300 to 3000	≤ 300	≤ 300	Cc1noc(C)c1-c1cc(-c2c(C)nn(C)c2C)c2c(c1)ncn2C [Example Compound 182, 3,5-dimethyl-4-(1-methyl-7-(1,3,5-trimethyl-1H-pyrazol-4-yl)-1H-benzo[d]imidazol-5-yl)isoxazole]
≤ 300	≤ 300	≤ 300	≤ 300	Cc1ccncc1-c1cc(-c2c(C)noc2C)cc2[nH]c(NC3CCOCC3)nc12 [Example Compound 201, 6-(3,5-dimethyl-isoxazol-4-yl)-4-(4-methyl-pyridin-3-yl)-N-(tetra hydro-2H-pyran-4-yl)-1H-benzo[d] imidazol-2-amine]
≤ 300	300 to 3000	≤ 300	≤ 300	Cc1noc(C)c1-c1cc(-c2cccc(C#N)c2C)c2nc(N3CCOCC3)[nH]c2c1 [Example Compound 203, 3-(6-(3,5-dimethyl-isoxazol-4-yl)-2-morpholino-1H-benzo[d]imidazol-4-yl)-2-methyl benzonitrile]
≤ 300	≤ 300	≤ 300	≤ 300	Cc1noc(C)c1-c1cc(-c2cccc(C#N)c2C)c2nc(NC3CCOCC3)[nH]c2c1 [Example Compound 204, 3-(6-(3,5-dimethyl-isoxazol-4-yl)-2-((tetrahydro-2H-pyran-4-yl)amino)-1H-benzo[d]imidazol-4-yl)-2-methyl benzonitrile]
≤ 300	300 to 3000	300 to 3000	≤ 300	Cc1ccc(C#N)cc1-c1cc(-c2c(C)noc2C)cc2[nH]c(NC3CCN(C)CC3)nc12 [Example Compound 205, 3-(6-(3,5-dimethyl-isoxazol-4-yl)-2-((1-methyl-piperidin-4-yl)amino)-1H-benzo[d]imidazol-4-yl)-4-methyl benzonitrile]
300 to 3000	300 to 3000	300 to 3000	≤ 300	Cc1noc(C)c1-c1cc(-c2cccc(C(N)=O)c2C)c2nc(N3CCN(C)CC3)[nH]c2c1 [Example Compound 206, 3-(6-(3,5-dimethyl-isoxazol-4-yl)-2-(4-methyl-piperazin-1-yl)-1H-benzo[d]imidazol-4-yl)-2-methyl benzamide]
300 to 3000	300 to 3000	300 to 3000	≤ 300	Cc1noc(C)c1-c1cc(-c2cccc(C(N)=O)c2C)c2nc(NC3CCOCC3)[nH]c2c1 [Example Compound 207, 3-(6-(3,5-dimethyl-isoxazol-4-yl)-2-((tetrahydro-2H-pyran-4-yl)amino)-1H-benzo[d]imidazol-4-yl)-2-methyl benzamide]
300 to 3000	≤ 300	300 to 3000	≤ 300	Cc1noc(C)c1-c1cc(-c2cccc(C#N)c2C)c2nc(N3CCC(N)CC3)[nH]c2c1 [Example Compound 209, 3-(2-(4-amino-piperidin-1-yl)-6-(3,5-dimethyl-isoxazol-4-yl)-1H-benzo[d]imidazol-4-yl)-2-methyl benzonitrile]
300 to 3000	≤ 300	300 to 3000	≤ 300	Cc1ccc(C#N)cc1-c1cc(-c2c(C)noc2C)cc2[nH]c(NCc3ccccc3)nc12 [Example Compound 210, 3-(2-(benzylamino)-6-(3,5-dimethyl-isoxazol-4-yl)-1H-benzo[d]imidazol-4-yl)-4-methyl benzonitrile]
≤ 300	≤ 300	300 to 3000	≤ 300	CNc1nc2c(-c3cnccc3C)cc(-c3c(C)noc3C)cc2[nH]1 [Example Compound 214, 6-(3,5-dimethyl-isoxazol-4-yl)-N-methyl-4-(4-methylpyridin-3-yl)-1H-benzo[d] imidazol-2-amine]
300 to 3000	3000 to 30000	3000 to 30000	300 to 3000	Cc1noc(C)c1-c1cc(-c2cc(N)c(=O)n(C)c2)c2nc[nH]c2c1 [Example Compound 225, 3-amino-5-(6-(3,5-dimethylisoxazol-4-yl)-1H-benzo[d]imidazol-4-yl)-1-methyl-pyridin-2(1H)-one]
≤ 300	≤ 300	≤ 300	≤ 300	Cc1noc(C)c1-c1cc(-c2c(C)noc2C)c2nc(N3CCOCC3)[nH]c2c1 [Example Compound 226, 4-(4,6-bis(3,5-dimethylisoxazol-4-yl)-1H-benzo[d]imidazol-2-yl)morpholine]
300 to 3000	3000 to 30000	300 to 3000	300 to 3000	COc1c(-c2c(C)noc2C)cc2[nH]c(C)nc2c1-c1c(C)noc1C [Example Compound 227, 4,4′-(5-methoxy-2-methyl-1H-benzo[d]imidazole-4,6-diyl)bis(3,5-dimethylisoxazole)]
300 to 3000	300 to 3000	300 to 3000	≤ 300	Cc1noc(C)c1-c1cc(-c2c(C)noc2C)c2nc(C3CCOCC3)[nH]c2c1 [Example Compound 228, 4,4′-(2-(tetrahydro-2H-pyran-4-yl)-1H-benzo[d]imidazole-4,6-dyl)bis(3,5-dimethylisoxazole)]
